Results published in patent US10759994B2, “Luminogenic transition metal-based pyridyl complex and its use” (City University of Hong Kong, priority 2016, dated 2020).

Key:
[1] = aerated aqueous solution, λex=455 nm; cited from earlier work
[2] = SPANC reaction kinetics with BCN—OH by UV/Vis absorption spectroscopy; assay type: physicochemical; settings: reaction with BCN—OH in MeOH at 298 K
Description: The reactivity of the iridium(III) and ruthenium(II) pyridyl complexes toward a strained alkyne derivative BCN—OH in MeOH at 298 K was studied. The second-order rate constants (k2) of the strain-promoted alkyne-nitrone cycloaddition (SPANC) reaction of complexes 1a-5b are shown in Tables 3 and 4, respectively. The k2 values of the iridium(III) complexes 1a, 2a and 3a and the ruthenium(II) complexes 1b, 2b, 3b, 4b, and 5b were determined to be 0.116-0.238 and 0.078-3.06 M^−1 s^−1, respectively, which are about 1.95-76.5 times that of the free ligand bpy-nitrone-Me (k2=0.040 M^−1 s^−1). This is attributed to the electron-withdrawing effects of the positively-charged metal centers. […] The accelerated reaction kinetics is assumed to originate from the presence of the more electron-withdrawing phenyl ring at the N-position of the nitrone moiety. Thus, the accelerated reaction kinetics render complexes 1a-5b highly advantageous bioorthogonal probes for biomolecules modified with a strained alkyne moiety.
More specifically, the SPANC reaction kinetics of complexes 1a 5b was studied by UV/Ms absorption spectroscopy. For the ligand bpy-nitrone-Me and the iridium(III) complexes 1a-3a, the k2 values were measured under pseudo first order conditions with a 25- to 100-fold excess of BCN—OH in MeOH at 298 K. The reaction process was followed by monitoring the exponential decay of the absorbance at 306-342 nm upon addition of BCN—OH. The final concentrations of the nitrone compounds were 10 μM and those of BCN—OH ranged from 0.25 to 1.0 mM. For the ruthenium(II) complexes 1b-5b, the k2 values were determined under pseudo first order conditions with a 50- to 200-fold excess of BCN—OH in MeOH at 298 K. The reaction process was monitored by following the exponential decay of the absorbance at 329 nm. The final concentrations of the complexes were 10 μM and those of BCN—OH ranged from 0.5 to 2.0 mM. The data were fitted to a single-exponential equation to give the observed rate constants (kobs), which were plotted against the concentrations of BCN—OH to obtain the k2 from the slope of the plots.

[3] = tested on: HeLa cells; assay type: cell-based; settings: BCN-C10 pretreatment (200 μM, 1 h), complex 40 μM
Source text: The results particularly highlight the potential of the luminogenic transition metal-based polypyridyl complexes of the present invention for bioorthogonal labeling. […] Importantly, although the cellular uptake of complex 2b was substantially higher, it was much less cytotoxic than complex 4b toward the pretreated cells. […] The results also highlight the potential therapeutic use of intracellular bioorthogonal coupling reactions in activating the cytotoxicity of metallo drugs.
For determining the cytotoxicity of complexes 1 b 5b, HeLa cells were seeded in a 96-well flat-bottomed microplate (about 10,000 cells well^−1) in growth medium (100 μL) and incubated at 37° C. under a 5% CO2 atmosphere for 24 h. The cells were then incubated in either blank medium or growth medium/DMSO (99:1, v/v) (100 μL) containing BCN-C10 (200 μM) in the dark at 37° C. under a 5% CO2 atmosphere for 1 h. The medium was then removed, the cell layer was washed with PBS, and further incubated in growth medium/DMSO (99:1, v/v) (100 μL) containing the ruthenium(II) complexes (40 μM) in the dark at 37° C. under a 5% CO2 atmosphere for 6, 12, or 24 h. Wells containing untreated cells were used as blank control. The microplate was incubated at 37° C. under a 5% CO2 atmosphere for another 4 h. The growth medium was then removed, and DMSO (200 μL) was added to each well. The microplate was further incubated for 15 min. The absorbance of the solutions at 570 nm was measured with a SPECTRAmax 340 microplate reader.

Which “ϕem of standard solution” value [1] does the source give for `[Cl][Ru][Cl].c1ccc(-c2ccccn2)nc1.c1ccc(-c2ccccn2)nc1.c1ccc(-c2ccccn2)nc1` [[Ru(bpy)3]Cl2] here?
The value was 0.028.

For `Cc1ccnc(-c2cc(C=[N+](C)[O-])ccn2)c1` [bpy-nitrone-Me, 4-((Methyl(oxido)imino)methyl)-4′-methyl-2,2′-bipyridine], which “Second-order rate constants (k2)” value [2] is on record?
Its value is 0.040 M⁻¹ s⁻¹.

For `Cc1ccnc(-c2cc(/C=[N+](/C)[O-])ccn2)c1.F[P-](F)(F)(F)(F)F.F[P-](F)(F)(F)(F)F.[Ru+2].c1ccc(-c2ccccn2)nc1.c1ccc(-c2ccccn2)nc1` [Complex 1b, [Ru(bpy)2(bpy-nitrone-Me)](PF6)2], which “Cell viability with BCN-C10 pretreatment” value [3] is on record?
The value was “maintained good biocompatibility”.
